Where two headings read alike, the source gives them in different places.
How the values were obtained:
JAK1 = JAK1 (Homo sapiens (Human), UniProt P23458); assay: Jak biochemical HTRF enzyme assay, JAK1
JAK3 = JAK3 (Homo sapiens (Human), UniProt P52333); assay: Jak biochemical HTRF enzyme assay, JAK3; details: Table 1
Text: Jak Biochemical HTRF Enzyme Assay Protocol
The ability of compounds to inhibit the catalytic activity of JAK1, JAK2, JAK3, and TYK2 was quantified using a recombinant purified GST-tagged catalytic domain for each enzyme (InVitrogen/Life Technologies/ThermoFisher, catalogue #s: JAK1, #M4290; […]) in an HTRF format biochemical assay. […] Subsequent reagent additions employed an Agilent Bravo automated liquid handler. […] After normalization to untreated controls, the percent inhibition of the HTRF signal at each compound concentration was calculated. The plot of percent inhibition versus the log value of compound concentration was done as described above for cell assays to calculate IC50 values.

[1] = test system: Erythropoietin (EPO)—JAK2-STAT5 Pathway; assay: EPO CellSensor cell pathway engagement assay (irf1-bla TF-1 cells); type: cell-based; details: Homo sapiens, Table 1
Description: In brief, CellSensor® cell lines (see details below for each assay) carrying a stably integrated β-Lactamase reporter gene under control of specific cis-regulatory STAT elements responsive to the pathway being monitored were pre-treated with test compounds serially diluted in DMSO (see preparation and dosing of compounds and agonist cytokines section). […] Incubation with compounds, cytokines and LiveBLAzer™ were carried out at 37° C. in a tissue culture incubator maintained at 90% humidity and 5% CO2.
CellSensor irf1-bla TF-1 cells carry a stably integrated β-Lactamase reporter gene under control of the STAT5 Response Elements present in the Interferon Regulatory Factor I (IRF1) gene promoter.

[2] = Dog pharmacokinetics after IV administration; details: in vivo, 0.25 mg/kg I.V.
Description: Examples of the instant invention were evaluated in JAK1, JAK2, and JAK3 in vitro binding assays, and IL-6 and EPO cell pathway engagement assays, as described above. Table 1 tabulates the IC50 values of the instant invention in the JAK1, JAK2, and JAK3 in the in vitro binding assays, and the IL-6 and EPO cell pathway engagement assays, as well as the ratio of the JAK2/JAK1 IC50s, JAK3/JAK1 IC50s, and the EPO/IL-6 IC50s. Table 2 tabulates the pharmacokinetic parameters of the instant invention in the dog after IV administration.

[3] = IL-31 induced itching model; type: in vivo, Beagle dogs; details: dog, in vivo, 1 mg/kg body weight; Beagle dogs, dosing before cIL-31 challenge; read-out: approximate Tmax
cIL-31 induced pruritus = assay: IL-31 induced itching model; type: in vivo, Beagle dogs
[4] = 6-week pilot target animal safety study; details: for NOAEL at 6 weeks: dog, in vivo, po
Description: The drug was administered orally, as a compressed tablet, twice per day for 6 weeks to dogs at 1, 3, and 5 times the maximum exposure dose of 0.5 mg/kg, or once per day for 6 weeks to dogs at 5 times the maximum exposure dose of 1 mg/kg.

[5] = test system: Interleukin 6 (IL6)—JAK1/JAK2-STAT4 Pathway; assay: IL6 CellSensor cell pathway engagement assay (SIE-bla ME-180 cells); details: for IC50: Homo sapiens; for EPO/IL-6: Table 3, comparative examples
Description: Inhibition of the activity of JAK1 and JAK2 kinases in intact cells was quantified in antagonist mode using CellSensor® transcriptional reporter technology (Life Technologies/ThermoFisher: https://www.thermofisher.com/us/en/home/industrial/pharma-biopharma/drug-discovery-development/target-and-lead-identification-and-validation/pathway-biology/cellular-pathway-analysis/cellsensor-cell-lines.html), in two independent cell lines engineered to detect IL4, IL6 and EPO signaling. In brief, CellSensor® cell lines (see details below for each assay) carrying a stably integrated β-Lactamase reporter gene under control of specific cis-regulatory STAT elements responsive to the pathway being monitored were pre-treated with test compounds serially diluted in DMSO (see preparation and dosing of compounds and agonist cytokines section). […] Incubation with compounds, cytokines and LiveBLAzer™ were carried out at 37° C. in a tissue culture incubator maintained at 90% humidity and 5% CO2.
Interleukin 6 (IL6)—JAK1/JAK2-STAT4 Pathway:
CellSensor™ SIE-bla ME-180 cells carrying a stably integrated β-Lactamase reporter gene under control of the Sis-Inducible Element (SIE).
Each CellSensor® cell line was subsequently plated as per supplier's instructions (30,000 cells in 32 μL/well) and mixed with compound. Following a 60 minute incubation cells were subsequently stimulated by addition of 8 μL of cognate cytokine (EC80 dose of IL6 and EPO) and incubated for an additional 3 hours, before adding LiveBLAzer™-FRET B/G substrate.

[6] = dogs with allergic or atopic dermatitis; cited from earlier work
[7] = dogs, higher doses; cited from earlier work
[8] = 0.5 mg/kg body weight, second study
[9] = dogs, oral, 6 weeks, up to 5 times maximum exposure dose
[10] = ME-180, read-out: IL-6 IC50 (nM)

Chain of JAK1 (P23458 875-1153): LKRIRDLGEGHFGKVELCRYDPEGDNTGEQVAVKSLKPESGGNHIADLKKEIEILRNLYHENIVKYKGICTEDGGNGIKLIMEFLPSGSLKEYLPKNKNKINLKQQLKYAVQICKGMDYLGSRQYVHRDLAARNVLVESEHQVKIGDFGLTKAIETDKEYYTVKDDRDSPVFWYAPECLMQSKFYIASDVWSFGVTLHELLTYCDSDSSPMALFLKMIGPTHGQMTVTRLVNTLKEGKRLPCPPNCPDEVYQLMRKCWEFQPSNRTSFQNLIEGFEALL
Chain of JAK3 (P52333 822-1111): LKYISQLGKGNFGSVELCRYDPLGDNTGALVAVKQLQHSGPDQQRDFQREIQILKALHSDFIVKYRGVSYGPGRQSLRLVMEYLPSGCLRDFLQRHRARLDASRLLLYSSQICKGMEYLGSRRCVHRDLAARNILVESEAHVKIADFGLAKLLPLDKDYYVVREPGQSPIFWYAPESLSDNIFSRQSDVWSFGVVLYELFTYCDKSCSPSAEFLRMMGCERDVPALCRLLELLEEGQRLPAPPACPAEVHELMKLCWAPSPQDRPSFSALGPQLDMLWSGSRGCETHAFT

With `COc1cc(Nc2nn([C@H]3COCC[C@@H]3C#N)cc2C(N)=O)cc(F)n1` (single isomer, unassigned) [Compound 1, 1-((3R,4S) or (3S,4R)-4-cyanotetrahydro-2H-pyran-3-yl)-3-((2-fluoro-6-methoxypyridin-4-yl)amino)-1H-pyrazole-4-carboxamide] the IC50 (JAK1) was 0.00043 µM, the IC50 (JAK3) was 1.13 µM and the IC50 [1] was 0.46 µM. The AUC [2] was 1290 nM·h, the clearance [2] was 0.565 L/h/kg and the half-life [2] was 4.38 h. For the same compound, the Vd ([2]; read-out: Vdss) was 1.95 L/kg, the Tmax [3] was roughly 2 h and the “suppression of cIL-31 induced pruritus” value (cIL-31 induced pruritus; 0.05 mg/kg body weight (sentence prints 0.5), second study) was “not”. The “suppression of cIL-31 induced pruritus” value (cIL-31 induced pruritus; 0.1 mg/kg body weight, second study) was “not”, the “magnitude of effect compared with Apoquel” value (cIL-31 induced pruritus; [8]) was “similar” and the “suppression of cIL-31 induced pruritus” value (cIL-31 induced pruritus; [8]) was “significantly suppressed”. The “suppression of cIL-31 induced pruritus” value (cIL-31 induced pruritus; 1 mg/kg body weight, dosed 2 h prior to cIL-31 challenge, first study) was “significantly suppressed”, the “magnitude of pruritus suppression compared with Apoquel” value (cIL-31 induced pruritus; 1 mg/kg body weight, first study) was “similar” and the NOAEL at 6 weeks [4] was 2.5 mg/kg. The NOAEL at 6 weeks ([4]; 5 mg/kg once per day) was 5 mg/kg/day, the “test article related effects in clinical observations, fecal observations, body weight, food consumption, physical examination, blood pressure, ophthalmology, cardiology” value [4, 9] was “No test article related effects were observed” and the “test article related effects in postmortem evaluations (organ weights, macroscopic and microscopic findings)” value [4, 9] was “No test article related effects were observed”. It also gave an IC50 [5, 10] of 41.8 nM.
In the case of `CN(C)[C@H]1CC[C@H](n2cc(C(N)=O)c(Nc3ccc(Cl)cc3)n2)[C@@H](C#N)C1` (single isomer, unassigned) [Reference Compound A, 3-[(4-chlorophenyl)amino]-1-[(1S,2S,4S or 1R,2R,4R)-2-cyano-4-(dimethylamino)cyclohexyl]-1H-pyrazole-4-carboxamide], the IC50 (JAK1; Table 3, comparative examples) is reported as 0.00167 µM.
With `CS(=O)(=O)c1ccc(Nc2nn([C@H]3CCCC[C@@H]3C#N)c3cc[nH]c(=O)c23)cc1` [B, (1S,2S)-2-(3-{[4-(methylsulfonyl)phenyl]amino}-4-oxo-4,5-dihydro-1H-pyrazolo[4,3-c]pyridin-1-yl)cyclohexanecarbonitrile] the “potency in IL6 CellSensor assay relative to EPO CellSensor assay” value ([5]; IL6 versus EPO assay) was “within two-three fold”.
With `COc1cc(Nc2nn([C@@H]3COCC[C@H]3C#N)cc2C(N)=O)cc(F)n1` [Enantiomer of 1] the IC50 (JAK1; Table 1) was 0.0177 µM, the IC50 (JAK3) was greater than 1.25 µM and the IC50 [1] was 9.48 µM. The IC50 [5, 10] was 2440 nM.
For `N#CCC1(n2cc(-c3ncnc4[nH]ccc34)cn2)CN(C2CCN(C(=O)c3ccnc(C(F)(F)F)c3F)CC2)C1` [INCB39110], the IC50 (JAK1; Table 3, comparative examples) was 0.0003 µM, the JAK2/1 (JAK1; Table 3, comparative examples) was 10x and the IC50 ([5]; ME-180, read-out: IL-6 IP (nM)) was 97 nM. For the same compound, the EPO/IL-6 [5] was 5x.
In the case of `N#CC[C@H](C1CCCC1)n1cc(-c2ncnc3[nH]ccc23)cn1` [JAKAFI], the JAK2/1 (JAK1) is reported as 0.7x, the IC50 ([5]; ME-180, read-out: IL-6 IP (nM)) is reported as 40 nM and the EPO/IL-6 [5] is reported as 0.2x.
In the case of `CNS(=O)(=O)C[C@H]1CC[C@H](N(C)c2ncnc3[nH]ccc23)CC1` [Oclacitinib], the IC50 (JAK1; Table 3, comparative examples) is given as 0.0034 µM, the JAK2/1 (JAK1; Table 3, comparative examples) is given as 2.0x and the “effect on pruritus and lesions” value [6] is given as “rapid amelioration of pruritus and reduces lesions”. The “effect on hematocrit, hemoglobin and reticulocyte counts” value [7] was “reduction”, the IC50 ([5]; ME-180, read-out: IL-6 IP (nM)) was 230 nM and the EPO/IL-6 [5] was 2.4x.

Source: US10875847B2, “Aminopyrazoles as selective janus kinase inhibitors” (Intervet Inc., priority 2016, dated 2020)
